# {Fluorescein} = fluorescein label
# Target: T1, human α-Thrombin (Homo sapiens, UniProt P00734)
# T1 construct: the light chain and the heavy chain were separated by reverse phase chromatography; gift from Prof; Bode, MPI Martinsried
# Test: CALI experiment: serine-protease activity of thrombin measured with Chromozym TH after laser irradiation
# Assay type: biochemical
# Conditions: 0.38 μM thrombin, 0.76 μM aptamer (1:2); argon ion laser 496 nm, 800 mW, 30 seconds per well; percentage of thrombin activity in a non-irradiated control; Chromozym TH substrate
# Experimental: Complexes were formed by mixing 7.6 μM thrombin with the fluorescein-labeled aptamer (1:2 molar ratio) in 50 mM Tris buffer, pH 8.3, 100 mM NaCl, and an incubation time of 30 min on ice in the dark.
# Control samples were prepared as described above, either omitting the aptamer, using a non-labeled aptamer or an equal concentration of FITC. Subsequently, the solutions were diluted 20-fold with the same buffer. The final concentrations were 0.38 μM thrombin and 0.76 μM aptamer. The samples were pipetted in 100 μl aliquots into wells of a flat bottom 96-well microtiter plate (Nunc A/S, Roskilde, DK), typically 1.2 ml or 12 wells total per sample. The plate was blocked with 1% BSA in PBS for 1 hour and then washed extensively prior to use.
# The serine-protease activity of thrombin was measured using Chromozym TH (Roche Diagnostics GmbH, Mannheim, Germany) as substrate. […] The absorbance increase at 405 nm, due to the cleavage of Chromozym TH into a residual peptide and free […] by thrombin, was followed with the time. The absorbance difference per minute, calculated in the linear range, was used to calculate the thrombin activity in U/ml. […]
substance,measurement,value
"Flu-THR15: fluorescein-labeled, thrombin-specific aptamer, 15-mer oligonucleotide GGTTGGTGTGGTTGG with the fluorescein moiety linked to its 5′ end (DNA, 5' {Fluorescein}, backbone not given here)",thrombin inactivation upon irradiation (CALI effect),55%
